Assay: Urinary excretion of flavanone-derived metabolites after single intake of lemon or orange extract (UPLC-ESI-QTOF-MS)
Type: in vivo, human
Conditions: lemon extract (3.1 g, 260 mg eriocitrin), urine fraction 0-4 h, mean ± SD
Source text: Secondary endpoints involved the evaluation of post-prandial changes in several biomarkers dealing with metabolism, inflammation, and oxidative stress after a high-fat-high-sugars meal. The design was a randomized pharmacokinetic, double-blind, crossover, single-dose trial consisted of 2 test-phases. The volunteers were randomly allocated into two groups using a computerized random number list. Each group consumed one of the citrus extracts by following a test-phase that lasted for 1 day for blood sampling and urine collection, a 2-week washout period between each test phase, and crossover before consuming the other extract. The volunteers were instructed to avoid the consumption of flavanone-containing products, from a list provided by the researchers, for 1 week before the study and during the wash-out phase (citrus fruit juices, tomatoes, tomato-based sauces (like ‘ketchup’), peppers, almonds, etc.). […] The 3 capsules provided a total of 1.95 g orange extract, containing 260 mg hesperidin, and 3.1 g lemon extract, containing 260 mg eriocitrin. […] Untreated urine samples were aliquoted and frozen at −80 °C for up to 4 weeks until analyses, avoiding freeze-thaw cycles to avoid metabolites’ deconjugation. Moreover, three measurements of blood pressure and heart rate were taken before each time-point of blood withdrawal. […] A previously validated method for analyzing phenolic metabolites in biological samples, including flavanone-derived metabolites, was used. […] After centrifugation at 14,000× g for 10 min at 4 °C, the supernatant was evaporated in a speed vacuum concentrator. Finally, samples were re-suspended in 100 µL of methanol, filtered through a 0.22 µm cellulose filters before analysis by UPLC- ESI-QTOF-MS. […] A targeted screening strategy was applied to identify metabolites that could be present after consuming the citrus extracts. Twenty-eight possible compounds were browsed in all the samples. The list of compounds included the polyphenols present in the extracts, with particular focus on the flavanone rutinosides hesperidin and eriocitrin, their respective aglycones hesperetin, and eriodictyol, as well as their derived phase-II conjugates (glucuronides, sulfates, sulfoglucuronides, etc.). The exact mass of each proposed compound was extracted using an extraction window of 0.01 m/z. The metabolites hesperetin 7-O-glucuronide, hesperetin 3′-O-glucuronide, hesperetin 3-O-sulfate, naringenin 4′-O-glucuronide, and naringenin 7′-O-glucuronide were quantified with their corresponding standards. […] The parent phenolic compounds were quantified with their corresponding standards. In the case of some relevant conjugated metabolites, which standards were not available (eriodictyol and homoeriodictyol conjugates), their quantification was achieved by using relative response factors (RRFs) as previously described. Briefly, RRFs are useful to check the different responses of metabolites in the mass spectrometer vs. their UV signal. While the ionization response of free vs. conjugated forms is usually very different, their UV signal response is quite similar. To this purpose, we injected in a HPLC-DAD-ESI-Q (MS) the plasma samples (n = 5) with the highest concentrations of those conjugated metabolites. Concentrations were calculated by integrating the area from their corresponding UV peaks and compared with the UV peak area of a known concentration of their corresponding available parent compounds (eriodictyol and homoeriodictyol). The concentrations calculated were used to compare the MS response for each conjugated-aglycone pair.

Row | Compound | Urinary excretion F1 [µg/mg creatinine]
1 | Eriodictyol sulfate [M13] | 4.6 ± 5.0
2 | O=C1CC(c2ccc(OC3OC(C(=O)O)C(O)C(O)C3O)c(O)c2)Oc2cc(O)cc(O)c21 (centres unmarked) [M4, Eriodictyol glucuronide-3] | 9.4 ± 16.9

Same assay, conditions: lemon extract, sum of fractions F1-F4 (24 h), mean ± SD

Row | Compound | Urinary excretion Total F [µg/mg creatinine]
3 | Eriodictyol sulfate [M13] | 32.6 ± 36.5
4 | O=C1CC(c2ccc(OC3OC(C(=O)O)C(O)C(O)C3O)c(O)c2)Oc2cc(O)cc(O)c21 (centres unmarked) [M4, Eriodictyol glucuronide-3] | 75.1 ± 128

Same assay, conditions: lemon extract, urine fraction 4-8 h, mean ± SD

Row | Compound | Urinary excretion F2 [µg/mg creatinine]
5 | Eriodictyol sulfate [M13] | 14.6 ± 17.3
6 | O=C1CC(c2ccc(OC3OC(C(=O)O)C(O)C(O)C3O)c(O)c2)Oc2cc(O)cc(O)c21 (centres unmarked) [M4, Eriodictyol glucuronide-3] | 33.8 ± 64.1

Same assay, conditions: lemon extract, urine fraction 8-10 h, mean ± SD

Row | Compound | Urinary excretion F3 [µg/mg creatinine]
7 | Eriodictyol sulfate [M13] | 11.9 ± 12.6
8 | O=C1CC(c2ccc(OC3OC(C(=O)O)C(O)C(O)C3O)c(O)c2)Oc2cc(O)cc(O)c21 (centres unmarked) [M4, Eriodictyol glucuronide-3] | 27.7 ± 40.1

Same assay, conditions: lemon extract, urine fraction 10-24 h, mean ± SD

Row | Compound | Urinary excretion F4 [µg/mg creatinine]
9 | Eriodictyol sulfate [M13] | 1.5 ± 1.5
10 | O=C1CC(c2ccc(OC3OC(C(=O)O)C(O)C(O)C3O)c(O)c2)Oc2cc(O)cc(O)c21 (centres unmarked) [M4, Eriodictyol glucuronide-3] | 4.3 ± 6.4

Same assay, conditions: orange extract (1.95 g, 260 mg hesperidin), urine fraction 0-4 h, mean ± SD

Row | Compound | Urinary excretion F1 [µg/mg creatinine]
11 | Eriodictyol sulfate [M13] | 0.02 ± 0.01
12 | O=C1CC(c2ccc(OC3OC(C(=O)O)C(O)C(O)C3O)c(O)c2)Oc2cc(O)cc(O)c21 (centres unmarked) [M4, Eriodictyol glucuronide-3] | 0.1 ± 0.2

Same assay, conditions: orange extract, sum of fractions F1-F4 (24 h), mean ± SD

Row | Compound | Urinary excretion Total F [µg/mg creatinine]
13 | Eriodictyol sulfate [M13] | 0.6 ± 0.9
14 | O=C1CC(c2ccc(OC3OC(C(=O)O)C(O)C(O)C3O)c(O)c2)Oc2cc(O)cc(O)c21 (centres unmarked) [M4, Eriodictyol glucuronide-3] | 3.4 ± 6.2

Same assay, conditions: orange extract, urine fraction 4-8 h, mean ± SD

Row | Compound | Urinary excretion F2 [µg/mg creatinine]
15 | Eriodictyol sulfate [M13] | 0.1 ± 0.1
16 | O=C1CC(c2ccc(OC3OC(C(=O)O)C(O)C(O)C3O)c(O)c2)Oc2cc(O)cc(O)c21 (centres unmarked) [M4, Eriodictyol glucuronide-3] | 0.5 ± 0.9

Same assay, conditions: orange extract, urine fraction 8-10 h, mean ± SD

Row | Compound | Urinary excretion F3 [µg/mg creatinine]
17 | Eriodictyol sulfate [M13] | 0.2 ± 0.4
18 | O=C1CC(c2ccc(OC3OC(C(=O)O)C(O)C(O)C3O)c(O)c2)Oc2cc(O)cc(O)c21 (centres unmarked) [M4, Eriodictyol glucuronide-3] | 0.7 ± 0.7

Same assay, conditions: orange extract, urine fraction 10-24 h, mean ± SD

Row | Compound | Urinary excretion F4 [µg/mg creatinine]
19 | Eriodictyol sulfate [M13] | 0.3 ± 0.4
20 | O=C1CC(c2ccc(OC3OC(C(=O)O)C(O)C(O)C3O)c(O)c2)Oc2cc(O)cc(O)c21 (centres unmarked) [M4, Eriodictyol glucuronide-3] | 2.1 ± 4.5

Same assay, conditions: urine, after consuming lemon extract, n = 16 volunteers

Row | Compound | Occurrence Urine LE (number of volunteers in whom the metabolite was detected)
21 | Eriodictyol sulfate [M13] | 16
22 | O=C1CC(c2ccc(OC3OC(C(=O)O)C(O)C(O)C3O)c(O)c2)Oc2cc(O)cc(O)c21 (centres unmarked) [M4, Eriodictyol glucuronide-3] | 16

Same assay, conditions: urine, after consuming orange extract, n = 16 volunteers

Row | Compound | Occurrence Urine OE (number of volunteers in whom the metabolite was detected)
23 | Eriodictyol sulfate [M13] | 12
24 | O=C1CC(c2ccc(OC3OC(C(=O)O)C(O)C(O)C3O)c(O)c2)Oc2cc(O)cc(O)c21 (centres unmarked) [M4, Eriodictyol glucuronide-3] | 11

Assay: Plasma metabolites and pharmacokinetics after single intake of lemon or orange extract (UPLC-ESI-QTOF-MS, non-compartmental analysis)
Type: in vivo, human
Conditions: after consuming lemon extract, n = 16 volunteers
Source text: Secondary endpoints involved the evaluation of post-prandial changes in several biomarkers dealing with metabolism, inflammation, and oxidative stress after a high-fat-high-sugars meal. The design was a randomized pharmacokinetic, double-blind, crossover, single-dose trial consisted of 2 test-phases. The volunteers were randomly allocated into two groups using a computerized random number list. Each group consumed one of the citrus extracts by following a test-phase that lasted for 1 day for blood sampling and urine collection, a 2-week washout period between each test phase, and crossover before consuming the other extract. The volunteers were instructed to avoid the consumption of flavanone-containing products, from a list provided by the researchers, for 1 week before the study and during the wash-out phase (citrus fruit juices, tomatoes, tomato-based sauces (like ‘ketchup’), peppers, almonds, etc.). […] The 3 capsules provided a total of 1.95 g orange extract, containing 260 mg hesperidin, and 3.1 g lemon extract, containing 260 mg eriocitrin. […] Plasma samples were obtained by centrifugation of peripheral venous blood at 14,000× g for 15 min at 4 °C and immediately frozen at −80 °C. Glucose, total cholesterol, HDL-cholesterol, LDL-cholesterol, triglycerides, insulin, homeostatic model assessment insulin resistance (HOMA-IR), gamma-glutamyl transferase (GGT), and alanine aminotransferase (ALT) were determined as previously reported. […] A previously validated method for analyzing phenolic metabolites in biological samples, including flavanone-derived metabolites, was used. […] After centrifugation at 14,000× g for 10 min at 4 °C, the supernatant was evaporated in a speed vacuum concentrator. Finally, samples were re-suspended in 100 µL of methanol, filtered through a 0.22 µm cellulose filters before analysis by UPLC- ESI-QTOF-MS. A targeted screening strategy was applied to identify metabolites that could be present after consuming the citrus extracts. Twenty-eight possible compounds were browsed in all the samples. The list of compounds included the polyphenols present in the extracts, with particular focus on the flavanone rutinosides hesperidin and eriocitrin, their respective aglycones hesperetin, and eriodictyol, as well as their derived phase-II conjugates (glucuronides, sulfates, sulfoglucuronides, etc.). The exact mass of each proposed compound was extracted using an extraction window of 0.01 m/z. The metabolites hesperetin 7-O-glucuronide, hesperetin 3′-O-glucuronide, hesperetin 3-O-sulfate, naringenin 4′-O-glucuronide, and naringenin 7′-O-glucuronide were quantified with their corresponding standards. […] The parent phenolic compounds were quantified with their corresponding standards. In the case of some relevant conjugated metabolites, which standards were not available (eriodictyol and homoeriodictyol conjugates), their quantification was achieved by using relative response factors (RRFs) as previously described. Briefly, RRFs are useful to check the different responses of metabolites in the mass spectrometer vs. their UV signal. While the ionization response of free vs. conjugated forms is usually very different, their UV signal response is quite similar. To this purpose, we injected in a HPLC-DAD-ESI-Q (MS) the plasma samples (n = 5) with the highest concentrations of those conjugated metabolites. Concentrations were calculated by integrating the area from their corresponding UV peaks and compared with the UV peak area of a known concentration of their corresponding available parent compounds (eriodictyol and homoeriodictyol). The concentrations calculated were used to compare the MS response for each conjugated-aglycone pair. Statistical analyses were carried out using the SPSS Software, version 23.0 (SPSS Inc., Chicago, IL, USA). Data are expressed as mean ± SD. The empirical distribution of data with the normality assumption was tested with the Shapiro-Wilk test. […]

Row | Compound | Occurrence Plasma LE (number of volunteers in whom the metabolite was detected)
25 | Eriodictyol sulfate [M13] | 16
26 | O=C1CC(c2ccc(OC3OC(C(=O)O)C(O)C(O)C3O)c(O)c2)Oc2cc(O)cc(O)c21 (centres unmarked) [M4, Eriodictyol glucuronide-3] | 16

Same assay, conditions: after consuming orange extract, n = 16 volunteers

Row | Compound | Occurrence Plasma OE (number of volunteers in whom the metabolite was detected)
27 | Eriodictyol sulfate [M13] | 10
28 | O=C1CC(c2ccc(OC3OC(C(=O)O)C(O)C(O)C3O)c(O)c2)Oc2cc(O)cc(O)c21 (centres unmarked) [M4, Eriodictyol glucuronide-3] | 7

Same assay, conditions: after lemon extract, mean ± SD

Row | Compound | AUC(0-t) [µM·h] | Cmax [nM] | Tmax [h]
29 | Eriodictyol sulfate [M13] | 6.12 ± 6.631 | 1710 ± 1510 | 5.7 ± 2.5
30 | O=C1CC(c2ccc(OC3OC(C(=O)O)C(O)C(O)C3O)c(O)c2)Oc2cc(O)cc(O)c21 (centres unmarked) [M4, Eriodictyol glucuronide-3] |  |  | 5.9 ± 2.6

Same assay, conditions: human, oral, 3.1 g, after lemon extract, mean ± SD

Row | Compound | Cmax [nM]
31 | O=C1CC(c2ccc(OC3OC(C(=O)O)C(O)C(O)C3O)c(O)c2)Oc2cc(O)cc(O)c21 (centres unmarked) [M4, Eriodictyol glucuronide-3] | 639 ± 802

Same assay, conditions: human, oral, 3.1 g, after lemon extract, mean ± SD, read-out: AUC0-t

Row | Compound | AUC(0-t) [µM·h]
32 | O=C1CC(c2ccc(OC3OC(C(=O)O)C(O)C(O)C3O)c(O)c2)Oc2cc(O)cc(O)c21 (centres unmarked) [M4, Eriodictyol glucuronide-3] | 2.29 ± 3.49

Same assay, conditions: human, oral, 3.1 g, after lemon extract, mean ± SD, read-out: Tmax

Row | Compound | Tmax [h]
33 | O=C1CC(c2ccc(OC3OC(C(=O)O)C(O)C(O)C3O)c(O)c2)Oc2cc(O)cc(O)c21 (centres unmarked) [M4, Eriodictyol glucuronide-3] | 6

— paper PMC8000041, “New Insights into the Metabolism of the Flavanones Eriocitrin and Hesperidin: A Comparative Human Pharmacokinetic Study” (Antioxidants, 2021)
